Measurements reported in patent US20220326244A1, “METHODS FOR DIAGNOSIS, PROGNOSIS, AND TREATMENT OF CANCER” (The Boardof Trustees of the Leland Stanford Junort …, priority 2019, published 2022).

How the values were obtained:
NK-92 cells = assay: PMA-stimulated degranulation and intracellular cytokine production of NK-92 cells (CyTOF); format: cell-based, human; conditions: mono- and coculture; PMA 4 h exposure
From the text: Intracellular cytokine production of CD9+ and CD9− NK-92 cells. One of the mechanisms by which dNK cells exert immune tolerance is through poor cytotoxic responses and secretion of a specific set of cytokines. Thus, we hypothesized that trogocytosis and the acquisition of CD9 by NK-92 cells endows them with features of immune tolerance. Therefore, we measured the intracellular expression levels of cytolytic proteins (perforin and granzyme B), anti-tumor cytokines ([…], TNFα, GM-CSF, IFNγ), the proangiogenic cytokine IL-8, the immunosuppressive cytokine IL-10, and CD107a, a marker for degranulation in both CD9+ and CD9− NK-92 cells after coculture with HGSC cells lines. Specifically, we measured NK-92 cell function before and after coculture in response to phorbol-12-myristate-13-acetate (PMA). Exposing cocultures to PMA circumvents upstream NK receptor signaling and is a convenient method for measuring NK cell function. In a pilot study, we determined that a coculture time of 6 h produced the most robust intracellular cytokine production (ICP). Therefore, NK-92 and HGSC cell lines were cocultured for 6 h in the presence of PMA (4 h exposure) with brefeldin A and monensin added to block secretion (Materials and Methods). For all experiments, we used two positive controls. […]

[1] = tested on: NK-92 cells cocultured with OVCAR4, Kuramochi and TYK-nu HGSC tumor cell lines; assay: Trogocytosis inhibition: CD9 acquisition by NK-92 cells in coculture with HGSC cell lines; format: cell-based, human
Protocol: To further confirm that the mechanism of CD9 acquisition by NK-92 cells was through trogocytosis we performed an additional series of experiments. Many studies have shown that inhibitors of actin polymerization block trogocytosis but that the effect of these inhibitors vary depending on the cell type.
(§1) Trogocytosis inhibition. NK-92 cells were pre-treated with cytochalasin D (10 μM in complete media) for 2 h. They were then co-cultured with cancer cell lines as indicated in a ratio of 1:1 in the continuous presence of cytochalasin D for a further 2 h after which cells were stained with antibodies against CD9, CD45 and processed prior to CyTOF analysis as described above.

[2] = tested on: NK-92 cells cocultured with non-HGSC tumor cell lines; assay: Trogocytosis inhibition: CD9 uptake by NK-92 cells in coculture with non-HGSC cell lines; format: cell-based, human
From the text: Evaluation of NK-92 trogocyctosis from non-HGSC cell lines. In order to determine whether NK-92 CD9 trogocytosis was a feature of non-HGSC tumor cells, we established the frequency of CD9-expressing cells in 15 non-HGSC as well as 11 HGSC tumor cell lines (FIG. 6A). The frequency and levels of CD9-expressing tumor cells varied across the cell lines and are presented going from highest to lowest CD9 levels (FIGS. 6A and B). […] We therefore chose three non-HGSC tumor cell lines with high CD9 expression (HCT116, A431 and MCF7) and three with lower CD9 expression (HeLa, CaCo-2 and HepG2) for trogocytosis experiments (FIG. 6B). NK-92 trogocytosis from non-HGSC cell lines was highly varied, not correlated to CD9 levels and, aside from the HCT116 colorectal cancer cell line, less pronounced than from the HGSC cell lines (FIGS. 5C and 6C).
as §1

Kuramochi (EV) cell line = assay: Carboplatin exposure of HGSC cell line, CyTOF with tumor NK receptor ligand/ADAM antibody panel; format: cell-based; conditions: for frequency of cells expressing nectin 4: baseline 15%
Protocol: (§2) FIG. 4. Responses to carboplatin across E, EV and V HGSC cell lines. OVCAR4 (E), Kuramochi (EV) and TYK-nu (V) cell lines exposed to vehicle or carboplatin at 0.5 or 1 μg/ml for 1 week were processed for CyTOF with the tumor NK receptor ligand/ADAM antibody panel. The parent population is defined as viable single cells negative for cisplatin and cPARP. The plots show frequencies of HGSC cells expressing activating and inhibitor NK receptor ligands (X-axis) gated out of the parent population (Y-axis). Plots show the mean of triplicates with standard deviations. p-values: *≤0.05, **≤0.005, for overall ANOVA.
(§3) Changes in NK receptor ligand expression levels in response to carboplatin. It is well established that activation of the DNA damage response with genotoxic agents increases the expression of ligands for NKG2D and DNAM1 thereby making a “stressed” cell more susceptible to NK cell killing. We therefore exposed the three HGSC cell lines to carboplatin, a genotoxic agent that is part of the standard-of-care regimen for women with HGSC. After one week, the HGSC cell lines were processed for CyTOF using the tumor/NK receptor ligand antibody panel (Table 12).
(§4) Sample Processing and Antibody Staining for CyTOF. Frozen, fixed single-cell suspensions of HGSC tumors or cell lines were thawed at room temperature. For each sample, 1×10^6 cells were aliquoted into cluster tubes in 96 well plates and subjected to pre-permeabilization palladium barcoding. After barcoding, pooled cells were pelleted and incubated for 10 min at room temperature with FcX block (Biolegend) to block non-specific antibody binding. Cells were then incubated with antibodies against surface markers for 45 min at room temperature. Cells were permeabilized at 4° C. with methanol or 1× Permeabilization Buffer (eBioscience) (only for the CyTOF antibody panel designed to characterize intracellular cytokines, on ice for 10 min. Cells were subsequently stained with antibodies against intracellular markers for 1 h at room temperature, washed, and incubated with the ^191/193Ir DNA intercalator (Fluidigm) at 4° C. overnight. Cells were washed and resuspended in a solution of normalization beads before introduction into the CyTOF 2.

OVCAR4 (E) cell line = assay: as above; format: cell-based; conditions: for frequency of cells expressing nectin 4: OVCAR4, 1 week
Protocol: as §2, §3, §4

TYK-nu (V) cell line = assay: as above; format: cell-based; conditions: for frequency of cells expressing nectin 4: baseline 6%
Protocol: as §2, §3, §4

[3] = tested on: HGSC cell lines (OVCAR4, Kuramochi, TYK-nu); assay: Carboplatin exposure of the three HGSC cell lines, CyTOF (stated for all lines together); format: cell-based
Protocol: as §2, §3
Sample Processing and Antibody Staining for CyTOF. Frozen, fixed single-cell suspensions of HGSC tumors or cell lines were thawed at room temperature. […]

CCCCCCCCCCCCCC(=O)O[C@@H]1[C@@H](C)[C@@]2(O)[C@@H](C=C(CO)C[C@]3(O)C(=O)C(C)=C[C@@H]23)[C@@H]2C(C)(C)[C@]12OC(C)=O [PMA, phorbol-12-myristate-13-acetate]
NK-92 cell degranulation (CD107a) and production of MIP1a (NK-92 cells): robust responses

C=C1[C@@H](C)[C@H]2[C@H](Cc3ccccc3)NC(=O)[C@]23[C@H](OC(C)=O)/C=C/[C@@](C)(O)C(=O)[C@@H](C)C/C=C/[C@H]3[C@@H]1O [cytochalasin D]
reduction of CD9+ NK-92 cells ([1]; NK-92 pre-incubated 2 h with cytochalasin D, coculture in its presence with OVCAR4, Kuramochi and TYK-nu): 40-69% | inhibition of trogocytosis (HGSC cell line coculture) ([1]; pre-incubation of NK-92 cells with cytochalasin D (10 μM)): partial inhibition | CD9 uptake in NK-92 ([2]; non-HGSC cell lines, most marked for HCT116, MCF7 and CaCo2): partially inhibited | inhibition of trogocytosis (non-HGSC cell coculture) ([2]; preincubation of NK-92 cells with cytochalasin D (10 μM)): partial inhibition

N.N.O=C([O-])C1(C(=O)[O-])CCC1.[Pt+2] [carboplatin]
frequency of cells expressing HLA-E (Kuramochi (EV) cell line; Kuramochi, after carboplatin 1 week): significant increases | frequency of cells expressing nectin 4 (Kuramochi (EV) cell line; Kuramochi, first listed of two carboplatin doses): 22% | frequency of cells expressing nectin 4 (Kuramochi (EV) cell line; Kuramochi, second listed of two carboplatin doses): 23% | frequency of Kuramochi cells expressing HLA-ABC (Kuramochi (EV) cell line; after carboplatin 1 week): significant increase | frequency of cells expressing HLA-E (OVCAR4 (E) cell line; OVCAR4, after carboplatin 1 week): significant increases | frequency of cells expressing nectin 4 (OVCAR4 (E) cell line; first listed of two carboplatin doses (0.5 or 1 μg/ml), baseline 24%): 39% | frequency of cells expressing nectin 4 (OVCAR4 (E) cell line; second listed of two carboplatin doses (0.5 or 1 μg/ml), baseline 24%): 45% | frequency of OVCAR4 cells expressing ULBP2 (OVCAR4 (E) cell line; after carboplatin (0.5 or 1 μg/ml, 1 week), baseline 24%): 50% | frequency of cells expressing HLA-E (TYK-nu (V) cell line; TYK-nu, after carboplatin 1 week): significant increases | frequency of cells expressing nectin 4 (TYK-nu (V) cell line; TYK-nu, first listed of two carboplatin doses): 9% | frequency of cells expressing nectin 4 (TYK-nu (V) cell line; TYK-nu, second listed of two carboplatin doses): 9% | CD111 in TYK-nu cells (TYK-nu (V) cell line; after carboplatin 1 week): significant increase | proportion of HGSC tumor cells that expressed NK inhibitory receptor ligands ([3]; all three cell lines, after carboplatin): increased | DNA damage response: pH2AX ([3]; carboplatin 0.5 or 1 μg/ml for 1 week): increase
